In patent US7666989B2 (priority 2003, dated 2010):
Converted amounts (≈) assume the structure as drawn. Marks after values point to notes of the source that are not given here.

Assays:
[1] = system: HL-60 (human promyelocytic leukemia cell); experiment: MTT cytotoxicity, HL-60; type: cell-based; conditions: 96 h, 4 days
Text: (§1) Reagents: RPMI1640 is from GIBCO; MTT is from Bebco. Fetal bovine serum is purchased from Hangzhou SiJiQing Bioengineering Material Co. Ltd. (P. R. China).
(§2) Cell lines: COLO 205 (human colon cancer cell), NCI-H460 (human lung cancer cell), RPMI 8226 (human multiple myeloma cell), U251 (human brain glioma cell) are from ATCC, USA. HL-60 (human promyelocytic leukemia cell), MDA-MB-231, MDA-MB-435 (human breast cancer cell), SCLC (human small-cell lung cancer cell), H125 (human lung cancer cell) and PC-3 (human […] cancer cell).
(§3) The well-grown tumor cells were collected to prepare a cell suspension (1×10^4/ml) with RPMI 1640 medium containing 10% fetal bovine serum. The cell suspension was inoculated into a 96-well plate, 100 μL (containing 1000 tumor cells) per well. The plate was cultured in a 5% CO2 incubator at 37° C. for 24 hours, followed by addition of medicament.
(§4) A blank control and a positive control using 5-fluorouracil or adriamycin are employed in the experiment. […]
(§5) The supernatant was discarded. […] After gently shaking, the OD values were measured by a BIORAD 550 enzyme analyzer, with the detection wavelength being 540 nm and the reference wavelength being 450 nm.
(§6) Dose-response curves were generated by plotting with the cell inhibition rates and different concentrations of medicament, and the half inhibitory concentrations (IC50) were calculated.

[2] = system: human lung cancer NCI-H460; experiment: Growth of human lung cancer NCI-H460 xenograft in nude mice; type: in vivo, BALB/c-nu nude mice; conditions: Cyclophosphamide 100 mg/kg i.p., then 80 mg/kg two weeks later
Method: The animals were then grouped based their tumor sizes. Each group included seven to eight animals.
(§7) The evaluation standard for efficacy:
(§8) T/C (%)>60 is ineffective;
One additional injection was given at 80 mg/kg two weeks later. […] The treatment contained a total of ten injections.

human brain glioma U251 = system: human brain glioma U251
Text: (§9) In this example, the animals used were BALB/c-nu nude mice, 6-8 weeks old. For each experiment, all animals were of the same sex.
(§10) Tumor cell lines: human brain glioma U251, human lung cancer cell line NCI-H460, human colon cancer cell line COLO205 were inoculated from in vitro culture into nude mice subcutaneously, the tumors were subcultured and kept.
(§11) Experimental Procedures: well-grown nude mice carrying well-grown tumors were selected and sacrificed by disjointing neck vertebra. The tumors were removed aseptically and were cut into pieces having a diameter of 2-3 mm by a scalpel. The pieces were inoculated into the axilla of nude mice subcutaneously by a needle. […] The length and width of tumors were measured by a vernier caliper. The animals were then grouped based their tumor sizes. Each group included seven to eight animals.
(§12) The length, width of the tumor and the body weight of the mice were measured twice per week. The tumor volume (TV) and relative tumor volume (RTV) were calculated. A graph indicating the changes of tumor size was plotted. At the end of this experiment, the tumors were taken out and weighed after the mice were sacrificed, and the inhibition rates of the medicament on tumor growth were calculated.
(§13) The formula for calculating tumor volume (TV) is: length×width^2÷2.
(§14) The formula for calculating relative tumor volume (RTV) is: Vt/Vo (wherein Vo is the TV value measured when the administration is started, Vt is the TV value measured after that).
(§15) T-test was used to determine the statistical difference of tumor weights, tumor volumes and RTV etc. between different groups of animal. The index used for evaluating the anti-tumor activity is the relative tumor growth rate T/C (%), the formula for which is: […]
as §7, §8
(§16) T/C (%)≦60 and P<0.05 after statistical analysis is effective.
The Carmustine (Renmin Pharmaceuticals, Amino Acid Inc. Tianjin, P. R. China) was used as the positive control, 40 mg/kg, administered by intraperitoneal injection for once. CPT was given to four groups at the doses of 0.6 mg/kg, 1.7 mg/kg, 5.0 mg/kg, 15.0 mg/kg respectively, administered by intraperitoneal injection. The treatment included ten injections.

[3] = system: human colon cancer COLO 205; conditions: COLO 205 xenograft, hydroxycamptothecin 1 mg/kg i.p. once per day 15 days, then further courses
Text: as §9, §10, §11, §12, §13, §14, §15, §7, §8, §16
Injectable hydroxycamptothecin (trade name: Xi Su, Wuhan Lishizhen Pharmaceuticals Inc., Huangshi Lishizhen Pharmaceuticals Group, P. R. China) was used as positive control, administered by intraperitoneal injection at the dose of 1 mg/kg, once per day. The administration was terminated after 15 consecutive days of administration. […] A single administration of 80 mg/kg hydroxycamptothecin was further given after two weeks. CPT was given to three treatment groups at the doses of 1.7 mg/kg, 5.0 mg/kg, 15.0 mg/kg respectively by intraperitoneal injection, once per day. The treatment contained a total of 15 injections.

PC-3 (human cancer cell) = experiment: MTT cytotoxicity, PC-3; type: cell-based; conditions: Homo sapiens, 96 h, 4 days
Text: as §1, §2, §3, §4, §5, §6

[4] = system: NCI-H460 (human lung cancer cell); experiment: MTT cytotoxicity, NCI-H460; type: cell-based; conditions: 96 h, 4 days
Text: as §1, §2, §3, §4, §5, §6

[5] = system: MDA-MB-231 (human breast cancer cell); experiment: MTT cytotoxicity, MDA-MB-231; type: cell-based; conditions: 96 h, 4 days
Text: as §1, §2, §3, §4, §5, §6

[6] = system: SCLC (human small-cell lung cancer cell); experiment: MTT cytotoxicity, SCLC; type: cell-based; conditions: Homo sapiens, 96 h, 4 days, read-out: IC50
Text: as §1, §2, §3
A blank control and a positive control using 5-fluorouracil or adriamycin are employed in the experiment. The CPT samples have five concentrations, three parallel wells for each concentration. The cells were cultured in an incubator with 5% CO2 at 37° C. for 4 days. Then the culture medium was removed and 100 μL MTT solution (0.4 mg/ml in RPMI 1640) was added to each well. The plate was incubated at 37° C. for four additional hours.
The supernatant was discarded. 150 μl DMSO was added into each well in order to solubilize Fomazan granulates. After gently shaking, the OD values were measured by a BIORAD 550 enzyme analyzer, with the detection wavelength being 540 nm and the reference wavelength being 450 nm.
as §6

[7] = system: COLO 205 (human colon cancer cell); experiment: MTT cytotoxicity, COLO 205; type: cell-based; conditions: Homo sapiens, 96 h, 4 days, read-out: IC50
Text: as §1, §2, §3, §4, §5, §6

[8] = system: MDA-MB-435 (human breast cancer cell); experiment: MTT cytotoxicity, MDA-MB-435; type: cell-based; conditions: Homo sapiens, 96 h, 4 days, read-out: IC50
Text: as §1, §2, §3, §4, §5, §6

[9] = system: H125 (human lung cancer cell); experiment: MTT cytotoxicity, H125; type: cell-based; conditions: Homo sapiens, NCI-H125, 96 h, 4 days, read-out: IC50
Text: as §1, §2, §3, §4, §5, §6

[10] = system: RPMI 8226 (human multiple myeloma cell); experiment: MTT cytotoxicity, RPMI 8226; type: cell-based; conditions: Homo sapiens, 96 h, 4 days, read-out: IC50
Text: as §1, §2, §3, §4, §5, §6

[11] = system: U251 (human brain glioma cell); experiment: MTT cytotoxicity, U251; type: cell-based; conditions: U-251, 96 h, 4 days
Text: as §1, §2, §3, §4, §5, §6

[12] = U251 xenograft, Carmustine 40 mg/kg i.p. once

COc1cccc2c1C(=O)c1c(O)c3c(c(O)c1C2=O)C[C@@](O)(C(=O)CO)C[C@@H]3O[C@H]1C[C@H](N)[C@H](O)[C@H](C)O1 [Adr, Adriamycin]
IC50 [1]: 0.006 µg/mL (≈ 0.011 µM)

O=P1(N(CCCl)CCCl)NCCCO1 (stereo not shown) [Cyclophosphamide, reference compound]
Body Weight (g) End [2]: 16.1 ± 2.2 g | RTV [2]: 3.67 ± 2.15 | T/C (%) [2]: 61.4% | Tumor volume (mm^3) End [2]: 1121 ± 434 mm^3 | Tumor weight [2]: 0.96 ± 0.35 g | Body Weight (g) Start ([2]; baseline): 20.0 ± 1.3 g | Tumor volume (mm^3) Start ([2]; baseline): 179 ± 52 mm^3 | Inhibition rate (%) ([2]; by tumor weight): 40.4%

O=NN(CCCl)C(=O)NCCCl [Carmustine, reference compound]
RTV (human brain glioma U251; [12]): 0.54 ± 0.29 | T/C (%) (human brain glioma U251; [12]): 16.0% | Tumor volume (mm^3) End (human brain glioma U251; [12]): 109 ± 78** mm^3 | Tumor weight (human brain glioma U251; [12]): 0.09 ± 0.06 g | Tumor volume (mm^3) Start (human brain glioma U251; U251 xenograft, Carmustine 40 mg/kg i.p. once, baseline): 153 ± 35 mm^3 | Inhibition rate (%) (human brain glioma U251; U251 xenograft, Carmustine 40 mg/kg i.p. once, by tumor weight): 93.0% | Body Weight (g) End (human brain glioma U251; mouse, in vivo): 19.4 ± 2.1 g | Body Weight (g) Start (human brain glioma U251; mouse, in vivo): 22.8 ± 0.7 g

CC[C@@]1(O)C(=O)OCc2c1cc1n(c2=O)Cc2cc3cc(O)ccc3nc2-1 [Hydroxycamptothecin, hydroxycamptothecin, reference compound]
Body Weight (g) End [3]: 21.0 ± 2.5 g | RTV [3]: 3.92 ± 1.91 | T/C (%) [3]: 47.2% | Tumor volume (mm^3) End [3]: 845 ± 66** mm^3 | Tumor weight [3]: 0.66 ± 0.26 g | Body Weight (g) Start ([3]; baseline): 20.4 ± 0.9 g | Tumor volume (mm^3) Start ([3]; baseline): 150 ± 34 mm^3 | Inhibition rate (%) ([3]; by tumor weight): 66.3%

O=c1[nH]cc(F)c(=O)[nH]1 [Fu, 5-fluorouracil, reference compound]
IC50 (PC-3 (human cancer cell)): 4.93 ± 0.753 µg/mL (≈ 37.9 µM) | IC50 [4]: 0.566 ± 0.016 µg/mL (≈ 4.35 µM) | IC50 [5]: 0.318 ± 0.055 µg/mL (≈ 2.44 µM) | IC50 [6]: 0.617 ± 0.0257 µg/mL (≈ 4.74 µM) | IC50 [7]: 0.826 ± 0.051 µg/mL (≈ 6.35 µM) | IC50 [8]: 0.199 ± 0.138 µg/mL (≈ 1.53 µM) | IC50 [9]: 0.138 ± 0.031 µg/mL (≈ 1.06 µM) | IC50 [10]: < 0.1 µg/mL | IC50 [11]: 0.981 ± 0.077 µg/mL (≈ 7.54 µM)
